Results: publication PMC6767234, “Effects of the Ethanol Extract of Dipterocarpus alatus Leaf on the Unpredictable Chronic Mild Stress-Induced Depression in ICR Mice and Its Possible Mechanism of Action” (Molecules, 2019)
Where a name gives a salt, the structure may show the parent alone.

How the values were obtained:
mice = details: cited from earlier work
UCMS = test system: UCMS; set-up: method as in PMID 28732760; details: cited from earlier work
ICR mice = test system: ICR mice; set-up: method as in PMID 31394019; details: oral, 5 mg/kg for 7 days, vs vehicle-administered control group; cited from earlier work
UCMS mice [1] = experiment: Sucrose preference test (anhedonia) in UCMS mice; format: in vivo, ICR mice; details: IMP 20 mg/kg i.p. daily, 5th week, vs vehicle-treated UCMS group
Method: (§1) UCMS procedures were used to induce the depressive-like behaviors in mice as previously described by Mizuki et al., with minor modification. Briefly, in week 0, the animals were first trained to consume a 2% sucrose solution for a 48-h period in their home cages with no food or water. After this training, the animals were deprived of water and food for 18 h, and then sucrose solution was given for 1 h per day for 5 consecutive days in order to group the mice and determine the baseline sucrose consumption. The animals were randomly divided into 5 groups: a non-stressed control group and 4 other groups subjected to UCMS for 5 weeks. The UCMS procedures consisted of a variety of unpredictable mild stressors, including two periods of cage tilting at 45° (12 h), two periods of restricted access to food (5 micropellets, 1 h), two periods of exposure to an empty bottle (3 h), one 21 h-period of a wet cage (200 mL of water in 100 g of sawdust bedding), two periods of light exposure (36 h), two periods of intermittent sound (a cat singing sound) (3 and 5 h), two periods of paired caging (2 h), and food and water deprivation for 18 h before the measurement of 2% sucrose solution consumption. […]
The sucrose preference test was used to assess the anhedonic-like behavior. […] The amounts of 2% (w/v) sucrose solution were recorded. […]

BDNF mRNA = experiment: QPCR of BDNF mRNA in frontal cortex and hippocampus of UCMS mice; format: in vivo, ICR mice; details: LE 100 and 500 mg/kg p.o., IMP 20 mg/kg i.p.
Method: (§2) UCMS procedures were used to induce the depressive-like behaviors in mice as previously described by Mizuki et al., with minor modification. Briefly, in week 0, the animals were first trained to consume a 2% sucrose solution for a 48-h period in their home cages with no food or water. After this training, the animals were deprived of water and food for 18 h, and then sucrose solution was given for 1 h per day for 5 consecutive days in order to group the mice and determine the baseline sucrose consumption. The animals were randomly divided into 5 groups: a non-stressed control group and 4 other groups subjected to UCMS for 5 weeks. […]
(§3) Mouse serum/glucocorticoid-regulated kinase 1 (SGK1), cyclic AMP response element binding protein (CREB), brain-derived neurotrophic factor (BDNF), mRNAs expression in hippocampus and frontal cortex were quantified by real time PCR. […] Fold difference relative expressions were calculated.

UCMS mice [2] = experiment: Tail suspension test (TST) in UCMS mice; format: in vivo, ICR mice; details: LE 100 and 500 mg/kg p.o. (dose-dependent), IMP 20 mg/kg i.p., vs vehicle-treated UCMS group
Method: as §2
Each mouse was suspended upside down in the tail suspension test box, which leads to characteristic behavior immobility. […] Immobility duration was recorded for the last 4 min, during a 6-min observation period. […]

UCMS mice [3] = experiment: Forced swimming test (FST) in UCMS mice; format: in vivo, ICR mice; details: LE 100 and 500 mg/kg p.o. (dose-dependent), IMP 20 mg/kg i.p., vs vehicle-treated UCMS group
Method: as §1
Forced swimming test (FST) is one of the most commonly used animal models for assessing antidepressant-like behavior. […] The immobility time was recorded during 5 min.

[4] = test system: serum corticosterone (CORT); experiment: Serum corticosterone (CORT) ELISA in UCMS mice; format: in vivo, ICR mice; details: imipramine 20 mg/kg/day, LE 100–500 mg/kg/day for 3 weeks, vs vehicle-treated UCMS group
Method: as §2
After completing the behavioral analysis, blood was collected via cardiac puncture under anesthesia with pentobarbital sodium as anesthetic drug (Nembutal®: 60 mg/kg i.p.; Ceva Sante Animale, Libourne, France). […] The absorbance was immediately determined at 450 nm.

CREB mRNA = experiment: QPCR of CREB mRNA in frontal cortex and hippocampus of UCMS mice; format: in vivo, ICR mice; details: LE 100 and 500 mg/kg p.o., IMP 20 mg/kg i.p.
Method: as §2, §3

SGK1 mRNA = experiment: QPCR of SGK1 mRNA in frontal cortex and hippocampus of UCMS mice; format: in vivo, ICR mice; details: LE 100 and 500 mg/kg p.o. (dose-dependent), IMP 20 mg/kg i.p.
Method: as §2, §3

UCMS mice [5] = experiment: Locomotor activity in the Y-maze task in UCMS mice; format: in vivo, ICR mice; details: LE 100 and 500 mg/kg p.o., IMP 20 mg/kg i.p.
Method: as §2
In order to exclude false positive results from drug-induced hyperlocomotion in hopeless behavioral tests, locomotor activity was determined by evaluation of mice movement. […] One hour after drug administration, the mice were individually placed on one arm, and the total arm entries were recorded manually over 8 min-period for measuring the locomotion activity.

recombinant human MAO-A = biological target: T1, recombinant human MAO-A (Homo sapiens, UniProt P21397); details: read-out: Km for the oxidation of kynuramine by MAO-A; cited from earlier work
T1 sequence (P21397 1-527): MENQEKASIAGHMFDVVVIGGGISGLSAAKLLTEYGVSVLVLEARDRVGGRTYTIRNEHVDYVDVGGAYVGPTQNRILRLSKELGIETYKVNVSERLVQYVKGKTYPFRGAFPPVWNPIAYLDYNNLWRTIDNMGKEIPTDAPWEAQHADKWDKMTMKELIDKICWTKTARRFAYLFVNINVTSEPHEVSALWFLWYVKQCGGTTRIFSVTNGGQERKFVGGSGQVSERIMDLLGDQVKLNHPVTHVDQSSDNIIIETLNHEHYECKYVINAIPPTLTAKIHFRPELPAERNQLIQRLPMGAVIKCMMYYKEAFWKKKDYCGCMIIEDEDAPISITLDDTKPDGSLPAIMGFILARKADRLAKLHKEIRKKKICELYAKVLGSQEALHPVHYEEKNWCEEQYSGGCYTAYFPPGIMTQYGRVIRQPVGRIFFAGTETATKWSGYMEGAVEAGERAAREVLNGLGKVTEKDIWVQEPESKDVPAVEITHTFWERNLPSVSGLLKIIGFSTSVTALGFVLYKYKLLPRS

recombinant human MAO-B = biological target: T2, recombinant human MAO-B (Homo sapiens, UniProt P27338); details: read-out: Km for the oxidation of kynuramine by MAO-B; cited from earlier work
T2 sequence (P27338 1-520): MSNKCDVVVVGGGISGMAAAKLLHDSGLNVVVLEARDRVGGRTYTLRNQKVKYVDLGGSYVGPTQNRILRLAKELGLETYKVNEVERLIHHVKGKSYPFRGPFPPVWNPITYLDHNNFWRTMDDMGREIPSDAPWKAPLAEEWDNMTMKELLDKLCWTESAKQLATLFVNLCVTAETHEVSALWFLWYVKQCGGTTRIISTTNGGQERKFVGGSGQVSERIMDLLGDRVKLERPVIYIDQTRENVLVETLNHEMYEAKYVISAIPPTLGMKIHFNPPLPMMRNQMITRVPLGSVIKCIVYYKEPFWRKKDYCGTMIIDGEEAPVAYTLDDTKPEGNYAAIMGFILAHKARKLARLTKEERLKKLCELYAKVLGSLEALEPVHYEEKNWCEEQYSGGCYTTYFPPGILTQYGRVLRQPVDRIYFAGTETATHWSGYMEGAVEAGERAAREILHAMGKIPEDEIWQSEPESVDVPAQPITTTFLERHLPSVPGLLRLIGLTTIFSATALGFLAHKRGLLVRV

O=c1c(O)c(-c2ccc(O)cc2)oc2cc(O)cc(O)c12 [Kaemferol]
immobility time in FST and TST (mice; stress-induced mice compared with unstressed mice): reducing the immobility time

C[C@@H]1O[C@@H](OC[C@H]2O[C@@H](Oc3c(-c4ccc(O)c(O)c4)oc4cc(O)cc(O)c4c3=O)[C@H](O)[C@@H](O)[C@@H]2O)[C@H](O)[C@H](O)[C@H]1O [Rutin, quercetin-3-rutinoside]
UCMS-induced behavioral deficits (UCMS): efficiently rescued the UCMS-induced behavioral deficits

COc1cc(/C=C/C(=O)O)ccc1O [ferulic acid]
immobility (ICR mice): significantly reduced immobility

CN(C)CCCN1c2ccccc2CCc2ccccc21 [imipramine, imipramine hydrochloride]
2% sucrose intake (UCMS mice [1]): significant increase | expression of BDNF mRNA (BDNF mRNA): normalized the down-regulated expression | immobility time in TST (UCMS mice [2]): significantly decreased the immobility time | immobility time in FST (UCMS mice [3]): significantly decreased the immobility time | UCMS-induced elevation in serum CORT levels [4]: significantly suppressed | expression of CREB mRNA (CREB mRNA): normalized the down-regulated expression | mRNA expression of SGK1 (SGK1 mRNA): markedly decreased | locomotor activity (number of arm entries, Y-maze) (UCMS mice [5]): neither imipramine (IMP) nor the ethanol extract of D. alatus leaf improved the locomotor activity

NCCC(=O)c1ccccc1N [kynuramine]
Km (recombinant human MAO-A): 16.1 µM | Km (recombinant human MAO-B): 22.7 µM

O=c1cc(-c2ccc(O)c(O)c2)oc2cc(O)cc(O)c12 [luteolin]
effect in FST and TST (mice; oral administration, 50 mg/kg): antidepressant effects
